This note sets out measurements from patent EP4144350B1, “TREATMENT OR PREVENTION OF VASCULAR MALFORMATION” (Universitätsmedizin Greifswald, priority 2021, dated 2023).

Molecules are shown by their SMILES.

Assay type in all cases: cell-based, human
One series relates to CI-huVECs. In words: Bright-field microscopy of EC morphology after compound treatment. Particulars: library screening follow-up (Fig. 14).
Another series deals with caspase-3. Kind of series: Caspase-3 activity assay. The protocol:
The proliferation rate of mutant and wild-type ECs in monoculture was quantified with the CyQuant® Cell Proliferation Assay Kit (C7026, Thermo Fisher Scientific). To discriminate the proliferation rates of CCM3^+/+ and CCM3^-/- CI-huVEC in co-culture, the CyQuant® Cell Proliferation Assay results were combined with mutant allele frequencies that had been determined by amplicon deep sequencing. To analyse their sensitivity to apoptosis, mutant and wild-type ECs were seeded in 96-well plates with 15.000 cells per well, and treated with staurosporine (S440, Sigma-Aldrich, St. Louis, MO, USA) 24 h later. The Caspase-3 DEVD-R110 Fluorometric HTS Assay Kit (30009, Biotium, Fremont, CA, USA), the Cell Meter™ Caspase 8 Activity Apoptosis Assay Kit (22798, AAT Bioquest, Sunnyvale, CA, USA), and the Cell Meter™ Caspase 9 Activity Apoptosis Assay Kit (22799, AAT Bioquest) were used following the manufacturer's instructions.

Series [1] concerns CCM1^-/- BOECs in co-culture with CCM1^+/- BOECs. Kind of series: Co-culture of patient-specific BOECs, frequency of second knockout allele. Particulars: 10 µM (Fig. 23). How it is done:
Clonally expanded CI-huVEC lines with biallelic loss-of-function variants in the first coding exon of CCM3 have been described before or were established according to a published CRISPR/Cas9 genome editing protocol. Blood outgrowth endothelial cells (BOECs) were cultured in EGM-2 medium (Lonza, Basel, Switzerland) supplemented with 18 % FCS. With the approval of the local ethics committee (University Medicine Greifswald, Germany; No.: BB 047/14a), CCM1^-/- BOECs had been established previously from CCM1^+/- BOECs of a CCM1 mutation carrier with CRISPR/Cas9 genome editing. Mutant and wild-type ECs were co-cultured in 96-well plates under standard culture conditions with the indicated mutant-to-wild-type ratios. 2500 cells were seeded per well.
The fraction of mutant alleles in co-culture were analysed by amplicon deep sequencing or T7EI cleavage assay. In brief, genomic target regions were first amplified by PCR. For T7E1 cleavage assays, heteroduplexes were formed and digested with T7EI enzyme (New England Biolabs, Frankfurt am Main, Germany). Cleavage products were visualised by gel electrophoresis and analysed with the Image Lab software (v6.0, Bio-Rad, Hercules, CA, USA). For NGS analysis, sequencing adapters and individual barcodes were introduced in a second round of PCR [7]. […] The data were analysed with the SeqNext software (JSI Medical Systems, Ettenheim, Germany).

Regarding `CN1CCN(C(=O)/C=C/c2ccc([N+](=O)[O-])o2)CC1` [NSC59984, (E)-1-(4-methylpiperazin-1-yl)-3-(5-nitrofuran-2yl)prop-2-en-1-one], the “EC morphology / endothelial phenotype” value in the series on CI-huVECs is given as “minimal effects on EC morphology”. Further, in the series with caspase-3 (Fig. 16), the “Apoptosis / caspase-3 activation” value is on record as “induced apoptosis at a tolerable level”. In addition, in the series on caspase-3 (treatment for 24 h, CCM3^+/+ and CCM3^-/- CI-huVECs (Fig. 16)), the Caspase-3 activities result was “did not increase caspase-3 activities”. For the same molecule, the “Expansion of CCM1^-/- BOECs in co-culture” value in series [1] was “significantly blocked the expansion of CCM1^-/- BOECs”.
